Experimental data as given in ChEMBL document CHEMBL1649153, “Population pharmacokinetics of high-dose, prolonged-infusion cefepime in adult critically ill patients with ventilator-associated pneumonia” (Antimicrob Agents Chemother, 2009).

Experiments:
Serum = test: Serum creatinine level in critically ill patient with ventilator-associated pneumoniae at […] administered as 3 hr infusion every 8 hrs by HPLC; assay type: ADME, organism-based; details: human, in vivo, iv
Homo sapiens = test: Toxicity in critically ill patient with ventilator-associated pneumoniae assessed as adverse effects at […] administered as 3 hr infusion every 8 hrs by HPLC; assay type: organism-based; details: in vivo, iv

serum creatinine (Serum): 0.8 mg/dL
Compound: CO/N=C(\C(=O)N[C@@H]1C(=O)N2C(C(=O)[O-])=C(C[N+]3(C)CCCC3)CS[C@H]12)c1csc(N)n1 [CEFEPIME]
Activity (Homo sapiens): Non-toxic
